Laboratory results as given in patent US20260185054A1, “METHOD FOR PRODUCING METABOLICALLY ACTIVATED LIVER ORGANOID, COMPOSITION, AND METHOD FOR EVALUATING TEST SUBSTANCE” (JSR CORPORATION, priority 2023, published 2026).

B1: prolactin: hormone from prolactin-secreting cells of the anterior pituitary; prolactin receptor agonist (PeproTech 100-07) (protein, UniProt P01236 29-227, looked up)
Prolactin: LPICPGGAARCQVTLRDLFDRAVVLSHYIHNLSSEMFSEFDKRYTHGRGFITKAINSCHTSSLATPEDKEQAQQMNQKDFLSLIVSILRSWNEPLYHLVTEVRGMQEAPEAILSKAVEIEEQTKRLLEGMELIVSQVHPETKENEIYPVWSGLPSLQMADEESRLSAYYNLLHCLRRDSHKIDNYLKLLKCRIIHNNNC

Assays:
Type in all cases: cell-based, human
[1] = test system: gluconeogenesis-related genes, urea production-related genes and CYP genes in liver organoid; assay: Quantitative real-time PCR of liver organoids, A83-01 removed from differentiation medium; details: liver organoids cultured in DM medium from which A83-01 had been removed, versus DM medium
From the text: A liver organoid was produced in the same manner as in Experimental Example 3, except that the transforming growth factor β receptor antagonist (A83-01) was removed from the differentiation medium (DM medium), and the expression of the gluconeogenesis-related genes, the urea production-related genes, and the CYP genes was examined by quantitative real-time PCR.
(§1) A total RNA was extracted from cells using Direct-zol RNA Kit micro (Zymo Research, catalog number: #R2063), and a reverse transcription reaction was carried out using a PrimeScript RT Master Mix (Takara Bio, catalog number: RR036A) to obtain a cDNA. Subsequently, quantitative real-time PCR was performed using LightCycler 480 System (Roche) and using TB Green Premix Ex Taq II (Takara Bio, catalog number: #RR820A). The cDNA of the primary human hepatocyte was diluted to create a calibration curve.

liver organoid [2] = assay: Gluconeogenesis of liver organoid (glucose quantified in medium supernatant, Glucose-Glo Assay); details: for gluconeogenesis of the liver organoid: glucose corrected by ATP, donor 9
Procedure: Subsequently, the medium was replaced with a Gluconogenesis assay medium having the composition shown in Table 4 below (hereinafter sometimes referred to as a “GM medium”), and incubation was performed for 24 hours in an environment of 37° C., 1 atm, and a CO2 concentration of 5 v/v %. The supernatant of the medium after the incubation was collected, and glucose and urea included in the medium were quantified. The measurement results will be described later.
The glucose was measured according to a protocol of the manufacturer using a Glucose-Glo™ Assay (Promega, catalog number: J6022). […]
In addition, the liver organoid after the incubation were washed three times with Fasting Medium (hereinafter sometimes referred to as an “FM medium”) having the composition shown in Table 3, FM was added thereto at 500 μL/well, and incubation was performed for 18 hours in an environment of 37° C., 1 atm, and a CO2 concentration of 5 v/v %.
Subsequently, the medium was replaced with a Gluconogenesis assay medium having the composition shown in Table 4 (hereinafter sometimes referred to as a “GM medium”), and incubation was performed for 24 hours in an environment of 37° C., 1 atm, and a CO2 concentration of 5 v/v %. The supernatant of the medium after the incubation was collected, and glucose and urea included in the medium were quantified. The quantification of glucose and urea was performed in the same manner as in Experimental Example 1. The measurement results will be described later.
The medium of the liver organoid, which had been produced in the same manner as in Experimental Example 2 and expansion-cultured for 2 weeks, was replaced with a differentiation medium (hereinafter sometimes referred to as a “DM medium”) having the composition shown in Table 6 below at 500 μL/well, and incubated for 2 weeks in an environment of 37° C., 1 atm, and a CO2 concentration of 5 v/v %. The medium was replaced every 7 days.
Subsequently, gluconeogenesis, urea production, albumin production, and bile acid production of the liver organoid were evaluated in the same manner as in Experimental Example 2. The results of the amount of glucose produced and the amount of urea produced will be described later.

liver organoid [3] = assay: Urea production of liver organoid (Quantichrom Urea Assay Kit); details: metformin 1 mM or 10 mM added to MM, FM and GM medium; organoid cultured in DM medium
Procedure: The urea was measured according to a protocol of the manufacturer using Quantichrom Urea Assay Kit (Bioassay Systems, catalog number: DIUR-100).

[4] = test system: gluconeogenesis-related genes (FBP1, PCK1) in liver organoid; assay: Quantitative real-time PCR of liver organoids, gluconeogenesis medium composition changed; details: 1 μM insulin in GM medium with 200 pg/mL glucagon and 400 ng/mL cortisol; FM 6 hours, GM 4 hours; donor 2
Procedure: A GM medium obtained by removing glucagon and cortisol from the gluconeogenesis medium (GM medium) having the composition shown in Table 4, and further adding the components shown in Table 15 was prepared. Liver organoids were produced in the same manner as in Experimental Example 3, except that the incubation was performed for 6 hours after the addition of the FM medium and then the incubation was performed for 4 hours after the addition of the GM medium. In addition, the donor of the primary human hepatocyte used for the production of the liver organoid was a donor 2.
as §1, with “Subsequently, the expression of various genes in each of the produced liver organoids was analyzed by quantitative real-time PCR (qPCR). Specifically, a total” for “A total”

[5] = factor included in differentiation medium at varied concentrations (Tables 9, 10)
[6] = factor included in gluconeogenesis medium (Tables 17, 18)

| Molecule | gluconeogenesis of the liver organoid (liver organoid [2]; [5]) | gluconeogenesis of the liver organoid (liver organoid [2]; [6]) | further results |
| --- | --- | --- | --- |
| Cc1cccc(-c2nn(C(=S)Nc3ccccc3)cc2-c2ccnc3ccccc23)n1 [A83-01] | – | – | expression of the gluconeogenesis-related genes, the urea production-related genes, and the CYP genes [1]: decreased |
| C[C@]12CCC(=O)C=C1CC[C@@H]1[C@@H]2[C@@H](O)C[C@@]2(C)[C@H]1CC[C@]2(O)C(=O)CO [cortisol, reference compound] | improved in a manner dependent on the concentrations of added factors | improved | – |
| CN(C)C(=N)N=C(N)N [metformin, reference compound] | – | – | urea production in the liver organoid (liver organoid [3]): suppressed; gluconeogenesis in the liver organoid (liver organoid [2]; metformin 1 mM or 10 mM added to MM, FM and GM medium, organoid cultured in DM medium): suppressed |
| glucagon: hormone that increases blood glucose level through glycogenolysis and gluconeogenesis in the liver (Sigma G2044) | – | improved | – |
| growth hormone: hormone secreted from the anterior pituitary; growth hormone receptor agonist (PeproTech 100-40) | improved in a manner dependent on the concentrations of added factors | improved | – |
| insulin: insulin added at 1 μM to the gluconeogenesis medium | – | – | expression of the gluconeogenesis-related genes [4]: suppresses |
| B1 | improved in a manner dependent on the concentrations of added factors | improved | – |
